Laboratory results from patent publication US7348427B2, “Antipathogenic benzamide compounds” (Genesoft Pharmaceuticals, Inc., priority 2001, dated 2008).
Values after ≈ are worked out from the molar mass of the structure shown.

Legend:
E. faecalis ATCC 29212 = experiment: MIC, NCCLS broth microdilution assay; assay type: cell-based, Enterococcus faecalis; conditions: C = E. faecalis ATCC 29212; for MIC: Enterococcus faecalis, ATCC29212, read-out: Minimum Inhibitory Concentration (MIC)
How it was run: (§1)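 MICs were determined by NCCLS broth microdilution following documents M7-A4 and M11-A4 (1997).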

[1] = test system: Bacillus cereus (ATCC 11778); experiment: MIC, NCCLS broth microdilution assay; assay type: cell-based; conditions: A = B. cereus ATCC 11778; for MIC: Bacillus cereus, ATCC11778, read-out: Minimum Inhibitory Concentration (MIC)
How it was run: (§2)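 Activity is measured as MIC in microtiter broth microdilution under NCCLS M7-A4, M11-A4 and M27-T guidance, with the yeast tested by the method in Murray's Manual of Clinical Microbiology.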

[2] = test system: Staphylococcus aureus (ATCC 27660, a methicillin resistant strain (MRSA)); experiment: MIC, NCCLS broth microdilution assay; assay type: cell-based; conditions: F = S. aureus ATCC 27660; for MIC: Staphylococcus aureus, read-out: Minimum Inhibitory Concentration (MIC)
How it was run: as §2

[3] = test system: Enterococcus faecium (ATCC 51559, a vancomycin resistant strain (VRE)); experiment: MIC, NCCLS broth microdilution assay; assay type: cell-based; conditions: D = E. faecium ATCC 51559
How it was run: as §2

[4] = test system: Staphylococcus epidermidis (ATCC 12228); experiment: MIC, NCCLS broth microdilution assay; assay type: cell-based; conditions: G = S. epidermidis ATCC 12228
How it was run: as §2

[5] = test system: Candida albicans (ATCC 38247); experiment: Antifungal MIC assay; assay type: cell-based; conditions: B = C. albicans ATCC 38247; for MIC: Candida albicans, ATCC38247, read-out: Minimum Inhibitory Concentration (MIC)
How it was run: as §2

S. pneumoniae ATCC 49619 = experiment: MIC, NCCLS broth microdilution assay; assay type: cell-based, Streptococcus pneumoniae; conditions: H = S. pneumoniae ATCC 49619; for MIC: Streptococcus pneumoniae, ATCC49619, read-out: Minimum Inhibitory Concentration (MIC)
How it was run: as §1

[6] = test system: Streptococcus pneumoniae (ATCC 51422, a penicillin resistant strain (PRSP)); experiment: MIC, NCCLS broth microdilution assay; assay type: cell-based; conditions: I = S. pneumoniae ATCC 51422
How it was run: as §2

[7] = test system: Staphylococcus aureus (ATCC 13709, a methicillin sensitive strain (MSSA)); experiment: MIC, NCCLS broth microdilution assay; assay type: cell-based; conditions: E = S. aureus ATCC 13709; for MIC: Staphylococcus aureus, read-out: Minimum Inhibitory Concentration (MIC)
How it was run: as §2

| Structure (SMILES) | Minimum Inhibitory Concentration (MIC) (E. faecalis ATCC 29212) | Minimum Inhibitory Concentration (MIC) [1] | Minimum Inhibitory Concentration (MIC) [2] | Minimum Inhibitory Concentration (MIC) [3] | Minimum Inhibitory Concentration (MIC) [4] | Minimum Inhibitory Concentration (MIC) [5] | Minimum Inhibitory Concentration (MIC) (S. pneumoniae ATCC 49619) | Minimum Inhibitory Concentration (MIC) [6] | Minimum Inhibitory Concentration (MIC) [7] | MIC (S. pneumoniae ATCC 49619) [µg/mL] | MIC (E. faecalis ATCC 29212) [µg/mL] | MIC [1] [µg/mL] | MIC [7] [µg/mL] | MIC [2] [µg/mL] | MIC [5] [µg/mL] |
| --- | --- | --- | --- | --- | --- | --- | --- | --- | --- | --- | --- | --- | --- | --- | --- |
| Cn1cc(NC(=O)c2cc(NC(=O)c3cc(NC(=O)c4cc(NC(=O)c5ccc(F)cc5F)c[nH]4)cn3C)cn2C)cc1C(=O)NCCN1CCOCC1 [Compound A-2] | ++ (++ = 4 < MIC < 12) | +++ (+++ = MIC ≦ 4) | + (+ = 12 ≦ MIC ≦ 32) | + (+ = 12 ≦ MIC ≦ 32) | + (+ = 12 ≦ MIC ≦ 32) | >32 µg/mL | – | – | – | – | – | – | – | – | – |
| Cn1cc(NC(=O)c2cc(NC(=O)c3cc(NC(=O)c4ccc(F)cc4F)c[nH]3)cn2C)cc1C(=O)NCCc1ccncc1 [Compound A-7] | +++ (+++ = MIC ≦ 4) | +++ (+++ = MIC ≦ 4) | +++ (+++ = MIC ≦ 4) | +++ (+++ = MIC ≦ 4) | +++ (+++ = MIC ≦ 4) | >32 µg/mL | +++ (+++ = MIC ≦ 4) | +++ (+++ = MIC ≦ 4) | +++ (+++ = MIC ≦ 4) | – | – | – | – | – | – |
| Cn1cc(NC(=O)c2cc(NC(=O)c3cc(NC(=O)c4ccc(F)cc4F)c[nH]3)cn2C)cc1C(=O)NCCN1CCC(F)(F)CC1 [Compound A-12] | +++ (+++ = MIC ≦ 4) | +++ (+++ = MIC ≦ 4) | + (+ = 12 ≦ MIC ≦ 32) | +++ (+++ = MIC ≦ 4) | +++ (+++ = MIC ≦ 4) | >32 µg/mL | +++ (+++ = MIC ≦ 4) | +++ (+++ = MIC ≦ 4) | +++ (+++ = MIC ≦ 4) | – | – | – | – | – | – |
| CN(C)CCCNC(=O)c1cc(NC(=O)c2cc(NC(=O)c3cc(NC(=O)c4ccc(Cl)cc4F)c[nH]3)cn2C)cn1C [Compound A-13] | ++ (++ = 4 < MIC < 12) | +++ (+++ = MIC ≦ 4) | +++ (+++ = MIC ≦ 4) | + (+ = 12 ≦ MIC ≦ 32) | +++ (+++ = MIC ≦ 4) | +++ (+++ = MIC ≦ 4) | +++ (+++ = MIC ≦ 4) | +++ (+++ = MIC ≦ 4) | +++ (+++ = MIC ≦ 4) | – | – | – | – | – | – |
| Cn1cc(NC(=O)c2cc(NC(=O)c3ccc(F)cc3)cn2C)cc1C(=O)NCCN1CCOCC1 [Compound B-36] | >32 µg/mL | >32 µg/mL | >32 µg/mL | + (+ = 12 ≦ MIC ≦ 32) | – | >32 µg/mL | + (+ = 12 ≦ MIC ≦ 32) | >32 µg/mL | >32 µg/mL | – | – | – | – | – | – |
| Cc1cc(NC(=O)c2cc(NC(=O)c3cc(NC(=O)c4ccc(F)cc4F)c[nH]3)cn2CCN2CCOCC2)sn1 [Compound D-4] | >32 µg/mL | >32 µg/mL | >32 µg/mL | – | – | >32 µg/mL | >32 µg/mL | +++ (+++ = MIC ≦ 4) | >32 µg/mL | – | – | – | – | – | – |
| Cn1cc(NC(=O)c2cc(NC(=O)c3ccc(Cl)cc3F)c[nH]2)cc1C(=O)Nc1cc(C(=O)NCCN2CCCCC2)n(CCN2CCCCC2)c1 [Compound D-14] | +++ (+++ = MIC ≦ 4) | +++ (+++ = MIC ≦ 4) | +++ (+++ = MIC ≦ 4) | – | – | >32 µg/mL | +++ (+++ = MIC ≦ 4) | – | +++ (+++ = MIC ≦ 4) | – | – | – | – | – | – |
| Cc1cc(NC(=O)c2cc(NC(=O)c3cc(NC(=O)c4ccc(Cl)cc4F)cn3CCCN(C)C)c[nH]2)sn1 [Compound D-15] | +++ (+++ = MIC ≦ 4) | +++ (+++ = MIC ≦ 4) | +++ (+++ = MIC ≦ 4) | – | – | +++ (+++ = MIC ≦ 4) | +++ (+++ = MIC ≦ 4) | – | +++ (+++ = MIC ≦ 4) | – | – | – | – | – | – |
| Cc1cc(NC(=O)c2cc(NC(=O)c3cc(NC(=O)c4ccc(Cl)cc4F)c[nH]3)cn2CCC[N+](C)(C)C)sn1 [Compound D-23] | +++ (+++ = MIC ≦ 4) | +++ (+++ = MIC ≦ 4) | +++ (+++ = MIC ≦ 4) | – | – | ++ (++ = 4 < MIC < 12) | +++ (+++ = MIC ≦ 4) | – | +++ (+++ = MIC ≦ 4) | – | – | – | – | – | – |
| Cc1cc(NC(=O)c2cc(NC(=O)c3cc(NC(=O)c4ccc(Cl)cc4F)cn3CCCN3CCC(O)CC3)c[nH]2)sn1 [Compound D-24] | +++ (+++ = MIC ≦ 4) | +++ (+++ = MIC ≦ 4) | +++ (+++ = MIC ≦ 4) | – | – | +++ (+++ = MIC ≦ 4) | +++ (+++ = MIC ≦ 4) | – | +++ (+++ = MIC ≦ 4) | – | – | – | – | – | – |
| CN(C)CCCn1cc(NC(=O)c2cc(NC(=O)c3ccc(Cl)cc3F)cn2C)cc1C(=O)Nc1cc(C(=O)NCCN2CCOCC2)n(C)c1 [Compound D-25] | +++ (+++ = MIC ≦ 4) | +++ (+++ = MIC ≦ 4) | +++ (+++ = MIC ≦ 4) | – | – | + (+ = 12 ≦ MIC ≦ 32) | +++ (+++ = MIC ≦ 4) | – | +++ (+++ = MIC ≦ 4) | – | – | – | – | – | – |
| CN(C)CCCn1cc(NC(=O)c2cc(NC(=O)c3ccc(Cl)cc3F)c[nH]2)cc1C(=O)Nc1cc(C(=O)NCCN2CCOCC2)n(C)c1 [Compound D-26] | +++ (+++ = MIC ≦ 4) | +++ (+++ = MIC ≦ 4) | +++ (+++ = MIC ≦ 4) | – | – | + (+ = 12 ≦ MIC ≦ 32) | +++ (+++ = MIC ≦ 4) | – | +++ (+++ = MIC ≦ 4) | – | – | – | – | – | – |
| Cn1cc(NC(=O)c2cc(NC(=O)c3cc(NC(=O)c4ccc(Cl)cc4)cn3C)cn2CCN2CCOCC2)cc1C(=O)NCCN1CCOCC1 [Compound D-27] | +++ (+++ = MIC ≦ 4) | ++ (++ = 4 < MIC < 12) | + (+ = 12 ≦ MIC ≦ 32) | – | – | >32 µg/mL | +++ (+++ = MIC ≦ 4) | – | + (+ = 12 ≦ MIC ≦ 32) | – | – | – | – | – | – |
| Cc1cc(NC(=O)c2cc(NC(=O)c3cc(NC(=O)c4ccc(Cl)cc4)cn3C)cn2CCN2CCOCC2)sn1 [Compound D-28] | + (+ = 12 ≦ MIC ≦ 32) | + (+ = 12 ≦ MIC ≦ 32) | + (+ = 12 ≦ MIC ≦ 32) | – | – | >32 µg/mL | +++ (+++ = MIC ≦ 4) | – | + (+ = 12 ≦ MIC ≦ 32) | – | – | – | – | – | – |
| Cn1cc(NC(=O)c2cc(NC(=O)c3ccc(F)cc3F)no2)cc1C(=O)NCCN1CCOCC1 [Compound E-3] | + (+ = 12 ≦ MIC ≦ 32) | + (+ = 12 ≦ MIC ≦ 32) | + (+ = 12 ≦ MIC ≦ 32) | – | – | >32 µg/mL | + (+ = 12 ≦ MIC ≦ 32) | – | >32 µg/mL | – | – | – | – | – | – |
| Cn1cc(NC(=O)c2cc(NC(=O)c3cc(NC(=O)c4ccc(F)cc4F)no3)cn2C)cc1C(=O)NCCN1CCOCC1 [Compound E-8] | – | – | – | – | – | – | – | – | – | ≤ 4 | ≤ 4 | 12 to 32 (≈ 19.2 to 51.2 µM) | ≤ 4 | ≤ 4 | > 32 |
| Cn1cc(NC(=O)c2cc(NC(=O)c3cnc(NC(=O)c4ccc(F)cc4F)s3)cn2C)cc1C(=O)NCCN1CCOCC1 [Compound E-9] | – | – | – | – | – | – | – | – | – | 12 to 32 (≈ 18.7 to 49.9 µM) | 12 to 32 (≈ 18.7 to 49.9 µM) | > 32 | > 32 | > 32 | > 32 |
